In patent US20100184852A1, “ORGANIC COMPOUNDS FOR TREATMENT OF DISORDERS CONNECTED TO IMPAIRED NEUROTRANSMISSION” (priority 2006, published 2010):

Tests used:
[1] = target: T1, human serotonin re-uptake transporter (hSERT) (Homo sapiens, UniProt P31645); assay: Serotonin uptake inhibition in HEK-293 cells expressing hSERT; format: cell-based; settings: transfected HEK-293 cells; 20 nM (3H) serotonin, 30 minutes; average +/− s.e.m.; read-out: IC50 for tritiated serotonin uptake
T1 construct: host or cells: HEK-293
T1 sequence (P31645 whole entry): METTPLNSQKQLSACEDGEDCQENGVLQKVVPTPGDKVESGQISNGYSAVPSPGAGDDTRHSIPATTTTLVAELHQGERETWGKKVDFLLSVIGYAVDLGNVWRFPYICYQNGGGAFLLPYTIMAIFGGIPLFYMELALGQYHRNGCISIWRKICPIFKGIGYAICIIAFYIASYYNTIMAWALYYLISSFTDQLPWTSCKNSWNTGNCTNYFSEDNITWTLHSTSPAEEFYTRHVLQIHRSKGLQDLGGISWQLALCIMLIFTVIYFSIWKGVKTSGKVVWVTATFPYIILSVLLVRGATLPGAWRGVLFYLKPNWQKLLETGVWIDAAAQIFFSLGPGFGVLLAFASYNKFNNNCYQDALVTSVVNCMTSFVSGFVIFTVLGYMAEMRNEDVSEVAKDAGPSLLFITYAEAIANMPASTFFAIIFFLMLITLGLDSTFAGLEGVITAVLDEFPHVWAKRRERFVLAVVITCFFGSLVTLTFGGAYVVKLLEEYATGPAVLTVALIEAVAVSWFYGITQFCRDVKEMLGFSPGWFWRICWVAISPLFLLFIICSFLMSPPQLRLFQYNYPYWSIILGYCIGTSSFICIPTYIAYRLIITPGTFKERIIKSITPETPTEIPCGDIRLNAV
Experimental: HEK-293 cells stably expressing the human serotonin re-uptake transporter (hSERT) were obtained from R. Blakely, Vanderbilt University, USA. The cells were routinely grown in Dulbeco's Modified Eagles Medium, purchased from Bioconcept, Allschwil, Switzerland containing 10% fetal calf serum, penicillin, streptomycin, L-glutamine and the antibiotic G418 and passaged by trypsinisation. One day prior to the assay cells were seeded in the above mentioned medium. Immediately prior to the assay the medium was replaced by Krebs Ringers bicarbonate buffer, purchased from Sigma Chemicals Ltd., supplemented with 35 μM pargyline, 2.2 mM CaCl2, 1 mM ascorbic acid and 5 mM N-2-hydroxyethylpiperazine-N′-2-ethanesulfonic acid (buffer called “Hepes”). Serotonin uptake into the cells was determined by addition of radio-labeled (3H) serotonin (Amersham Biosciences GE Healthcare, Slough, UK) to a concentration of 20 nM, and incubation for 30 minutes at room temperature. Following removal of unincorporated label by gentle washing three times with the above buffer, incorporated serotonin was quantified by liquid scintillation counting.
The effect of the compounds of formula I on the serotonin uptake was determined by its inclusion in the assay at a range of concentrations between 0.03 and 100 μM for 10 minutes prior to and during the addition of (3H) serotonin/citalopram. Serotonin uptake via the transporter was inhibited by ligustilide, 3-butylphthalide, senkyunolide A, senkyunolide C, senkyunolide B, and cnidilide, respectively, in a dose dependent manner, with IC50 values as shown in Table 2.

[2] = target: T2, Monoamine oxidase B (MAO-B) (Homo sapiens, UniProt P27338); assay: Monoaminooxidase B inhibition (H2O2/vanillic acid/HRP readout); format: biochemical
T2 sequence (P27338 1-520): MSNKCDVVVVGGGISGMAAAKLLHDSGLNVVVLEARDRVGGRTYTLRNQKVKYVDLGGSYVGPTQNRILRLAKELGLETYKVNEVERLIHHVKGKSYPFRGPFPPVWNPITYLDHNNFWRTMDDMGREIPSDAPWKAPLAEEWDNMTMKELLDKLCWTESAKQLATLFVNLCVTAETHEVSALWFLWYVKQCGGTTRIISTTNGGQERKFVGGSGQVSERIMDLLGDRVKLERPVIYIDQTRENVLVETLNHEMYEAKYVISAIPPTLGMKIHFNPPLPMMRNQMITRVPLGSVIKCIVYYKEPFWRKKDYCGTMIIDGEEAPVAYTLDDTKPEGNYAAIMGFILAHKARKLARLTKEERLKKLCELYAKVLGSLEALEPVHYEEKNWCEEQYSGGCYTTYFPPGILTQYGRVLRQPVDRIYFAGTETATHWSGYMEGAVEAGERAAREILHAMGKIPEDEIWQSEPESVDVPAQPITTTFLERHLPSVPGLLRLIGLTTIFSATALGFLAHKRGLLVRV
Experimental: The organic amines p-tyramine or benzylamine were used as substrates for the Monoamine oxidase A (MAO-A) and B (MAO-B) enzymes respectively. The H2O2 produced by this reaction was quantified by reaction with vanillic acid, catalysed by horse radish peroxidase (HRP).
The reactions were carried out in polystyrene microtitre plates. The MAO enzymes (final concentration 2 U/ml) were mixed with either p-tyramine (Sigma, final concentration 0.5 mM) or benzylamine (Sigma, final concentration 0.5 mM) as appropriate and the chromogenic solution (containing vanillic acid (Fluka), 4-aminoantipyrine (Fluka) and horse radish peroxidase (Sigma), final concentrations 0.25 mM, 0.125 mM and 1 U/ml respectively) in 0.2 M potassium phosphate buffer pH 7.6. The reactions were followed in a microtitre plate absorbance reader eg Spectramax M5 (Molecular Devices Corporation). Absorbance readings at 495 nm were taken every 15 seconds for 40 minutes and the initial reaction velocities calculated by linear regression using SOFTmaxPro (Molecular Devices Corporation).
The effect of ligustilide, 3-butylphthalide, senkyunolide C and cnidilide on the monoamine oxidase enzymes was determined by their inclusion in the assay at a range of concentrations between 0.03 and 100 μM for 10 minutes prior to and during the incubation with substrate. To determine the effect of the compounds on the HRP catalyzed portion of the reaction, the MAO enzyme was replaced by H2O2 (Molecular Probes, final concentration 0.2 mM). The reactions containing MAO-A and MAO-B were both inhibited by […] according to formula I in a dose dependent manner, whilst the control reaction, was unaffected. The measured IC50 values for inhibition of monoamine oxidase activity by ligustilide, 3-butylphthalide, senkyunolide C and enidilide, respectively, are shown in Table 3.

[3] = target: T3, human dopamine transporter (hDAT) (Homo sapiens, UniProt Q01959); assay: Dopamine uptake inhibition in CHO-Ki/hDAT cells; format: cell-based; settings: 50 nM [3H]Dopamine, 10 minutes
T3 construct: expressed in transfected cells; host or cells: CHO-Ki (CHO-K1)
T3 sequence (Q01959 whole entry): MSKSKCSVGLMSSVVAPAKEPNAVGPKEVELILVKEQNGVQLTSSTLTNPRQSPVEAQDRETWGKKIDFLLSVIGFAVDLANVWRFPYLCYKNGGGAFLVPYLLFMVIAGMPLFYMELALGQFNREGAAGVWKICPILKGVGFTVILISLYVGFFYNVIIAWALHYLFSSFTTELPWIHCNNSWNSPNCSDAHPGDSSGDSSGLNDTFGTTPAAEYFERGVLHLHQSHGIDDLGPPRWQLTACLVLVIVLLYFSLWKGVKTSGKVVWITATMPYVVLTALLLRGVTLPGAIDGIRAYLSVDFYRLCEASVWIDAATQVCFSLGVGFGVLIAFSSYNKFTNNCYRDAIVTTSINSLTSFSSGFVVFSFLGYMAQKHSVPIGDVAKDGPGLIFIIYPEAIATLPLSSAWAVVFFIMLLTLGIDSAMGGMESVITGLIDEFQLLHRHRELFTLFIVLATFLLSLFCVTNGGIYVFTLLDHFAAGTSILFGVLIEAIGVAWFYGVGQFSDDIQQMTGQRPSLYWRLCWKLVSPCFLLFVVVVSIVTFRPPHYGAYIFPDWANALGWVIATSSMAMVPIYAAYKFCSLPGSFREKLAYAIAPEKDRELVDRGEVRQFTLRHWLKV
Experimental: CHO-Ki/hDAT cells expressing the human dopamine transporter (hDAT) were plated before the assay. Cells (2×10^5/ml) were incubated with the compound of the formula I (3-n-butylphthalide) and/or vehicle in modified Tris-HEPES buffer pH 7.1 at 25° C. for 20 minutes before addition of 50 nM [^3H]Dopamine for 10 minutes. Specific signal was determined in the presence of 10 μM nomifensine. Cells were then solubilized with 1% […] lysis buffer. Reduction of [^3H]Dopamine uptake by 50 percent or more 50%) relative to vehicle controls indicates significant inhibitory activity. Compounds were screened at 10, 1, 0.1, 0.01 and 0.001 μM.

[4] = target: T4, Human recombinant norepinephrine transporter (Homo sapiens, UniProt P23975); assay: Norepinephrine uptake inhibition in MDCK cells; format: cell-based; settings: 25 nM [3H]Norepinephrine, 10 minutes
T4 construct: expressed in transfected cells; host or cells: dog kidney MDCK cells
T4 sequence (P23975 whole entry): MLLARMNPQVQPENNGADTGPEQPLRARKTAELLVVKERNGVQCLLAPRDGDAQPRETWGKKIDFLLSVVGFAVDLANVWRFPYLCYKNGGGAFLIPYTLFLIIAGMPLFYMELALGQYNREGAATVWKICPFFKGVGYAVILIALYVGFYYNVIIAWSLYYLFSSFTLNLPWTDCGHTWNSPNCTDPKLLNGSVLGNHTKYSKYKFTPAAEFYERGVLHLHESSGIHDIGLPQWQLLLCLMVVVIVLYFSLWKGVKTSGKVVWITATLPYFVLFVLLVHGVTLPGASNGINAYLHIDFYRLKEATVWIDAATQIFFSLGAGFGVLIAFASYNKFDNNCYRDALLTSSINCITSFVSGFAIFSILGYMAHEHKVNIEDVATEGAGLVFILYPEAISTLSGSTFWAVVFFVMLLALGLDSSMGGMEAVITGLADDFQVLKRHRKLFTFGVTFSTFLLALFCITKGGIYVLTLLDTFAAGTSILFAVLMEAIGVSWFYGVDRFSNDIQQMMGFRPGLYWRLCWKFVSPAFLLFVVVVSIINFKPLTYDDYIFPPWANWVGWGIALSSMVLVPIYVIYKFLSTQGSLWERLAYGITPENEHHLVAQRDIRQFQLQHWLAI
Experimental: Human recombinant norepinephrine transporter stably expressed dog kidney MDCK cells are plated one day before the assay. […] Cells in the well were then rinsed twice, solubilized with 1% SDS lysis buffer and the lysate was counted to determine [^3H]Norepinephrine uptake. Specific signal was determined in the presence of 10 μM desipramine. Reduction of [^3H]Norepinephrine uptake by 50 percent or more (≧50%) relative to vehicle controls indicates significant inhibitory activity. Compounds were screened at 10, 1, 0.1, 0.01 and 0.001 μM.

For `CCCC[C@@H]1OC(=O)c2ccccc21` (stereo in doubt) [3-n-butylphthalide, 3-n-Butylphthalide], the IC50 [1] was 35.2 µM, the IC50 [2] was 56.1 µM and the IC50 [3] was 22 µM. For the same compound, the IC50 [4] was 23.7 µM.
`CCC/C=C1\OC(=O)C2=C1CCC=C2` [Ligustilide] showed an IC50 [1] of 20.4 µM and an IC50 [2] of 24.9 µM.
